Drawing on ChEMBL document CHEMBL5338745, “Factor XIa Inhibitors in Anticoagulation Therapy: Recent Advances and Perspectives” (J Med Chem, 2023), this text covers IC50 for two molecules.

Molecules are shown by their SMILES.

One assay deals with Coagulation factor XI (Homo sapiens, UniProt P03951). Put plainly: Inhibition of FXIa (unknown origin).
The target of a further assay is T1, Neutrophil elastase (Homo sapiens, UniProt P08246).
T1 sequence (P08246 whole entry): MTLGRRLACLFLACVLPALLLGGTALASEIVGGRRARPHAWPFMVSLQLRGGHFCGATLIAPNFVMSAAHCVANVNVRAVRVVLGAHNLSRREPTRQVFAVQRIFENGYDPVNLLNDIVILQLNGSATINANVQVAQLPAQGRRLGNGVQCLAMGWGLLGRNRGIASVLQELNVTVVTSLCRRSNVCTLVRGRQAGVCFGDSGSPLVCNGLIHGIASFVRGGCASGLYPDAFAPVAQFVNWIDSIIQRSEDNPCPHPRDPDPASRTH
Kind of assay: Inhibition of human Neutrophil elastase.

The target in the next assay is T2, Cathepsin G (Homo sapiens, UniProt P08311).
T2 sequence (P08311 whole entry): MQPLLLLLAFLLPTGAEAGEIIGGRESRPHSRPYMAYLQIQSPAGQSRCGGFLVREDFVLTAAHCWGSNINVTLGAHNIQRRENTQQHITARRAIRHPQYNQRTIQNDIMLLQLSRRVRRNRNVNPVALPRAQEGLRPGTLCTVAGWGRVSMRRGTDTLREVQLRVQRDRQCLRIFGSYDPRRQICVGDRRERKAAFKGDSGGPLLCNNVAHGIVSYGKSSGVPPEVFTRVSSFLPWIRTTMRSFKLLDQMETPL
Put plainly: Inhibition of human cathepsin G.

Another assay deals with Prothrombin (Homo sapiens, UniProt P00734). Put plainly: Inhibition of human thrombin.
The next assay addresses Trypsin (Homo sapiens, UniProt P07477+P07478+P35030). Kind of assay: Inhibition of human trypsin. Format: protein assay.
The target in the next assay is Plasminogen (Homo sapiens, UniProt P00747). Put plainly: Inhibition of human plasmin.
The target of another assay is Coagulation factor X (Homo sapiens, UniProt P00742). Kind of assay: Inhibition of human FXa.
In a further assay the target is T3, Coagulation factor VII (Homo sapiens, UniProt P08709).
T3 sequence (P08709 whole entry): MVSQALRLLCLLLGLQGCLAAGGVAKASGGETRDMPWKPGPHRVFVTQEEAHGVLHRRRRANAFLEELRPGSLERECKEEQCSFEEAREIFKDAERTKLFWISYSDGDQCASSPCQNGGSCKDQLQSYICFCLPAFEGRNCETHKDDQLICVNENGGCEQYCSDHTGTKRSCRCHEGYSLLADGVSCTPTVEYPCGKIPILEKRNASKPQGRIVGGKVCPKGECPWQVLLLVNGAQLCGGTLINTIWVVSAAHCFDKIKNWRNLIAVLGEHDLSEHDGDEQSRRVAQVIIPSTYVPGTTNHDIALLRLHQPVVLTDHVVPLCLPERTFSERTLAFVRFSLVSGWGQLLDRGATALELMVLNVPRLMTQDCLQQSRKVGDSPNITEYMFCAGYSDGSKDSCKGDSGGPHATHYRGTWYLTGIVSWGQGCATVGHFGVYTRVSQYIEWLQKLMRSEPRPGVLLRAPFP
Put plainly: Inhibition of human FVIIa.

In the next assay the target is T4, Coagulation factor XII (Homo sapiens, UniProt P00748).
T4 sequence (P00748 whole entry): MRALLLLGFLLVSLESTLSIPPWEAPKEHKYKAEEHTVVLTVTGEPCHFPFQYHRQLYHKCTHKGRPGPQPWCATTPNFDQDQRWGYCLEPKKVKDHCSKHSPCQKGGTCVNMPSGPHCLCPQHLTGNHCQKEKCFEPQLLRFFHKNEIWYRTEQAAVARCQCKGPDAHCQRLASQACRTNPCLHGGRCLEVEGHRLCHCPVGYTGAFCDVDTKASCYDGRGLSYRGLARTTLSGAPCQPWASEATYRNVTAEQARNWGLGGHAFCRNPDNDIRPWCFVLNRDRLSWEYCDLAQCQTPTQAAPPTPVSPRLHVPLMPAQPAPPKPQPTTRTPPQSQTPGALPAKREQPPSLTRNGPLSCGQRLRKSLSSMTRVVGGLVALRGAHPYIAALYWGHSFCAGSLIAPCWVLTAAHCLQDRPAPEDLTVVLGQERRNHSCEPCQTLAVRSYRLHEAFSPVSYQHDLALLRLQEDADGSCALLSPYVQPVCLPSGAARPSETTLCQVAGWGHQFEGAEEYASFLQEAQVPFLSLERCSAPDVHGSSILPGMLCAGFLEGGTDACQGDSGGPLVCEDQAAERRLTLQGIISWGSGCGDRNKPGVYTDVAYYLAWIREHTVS
Put plainly: Inhibition of human FXIIa.

A further assay addresses Chymotrypsin (Homo sapiens, UniProt Q99895+P17538+P40313+Q6GPI1). Kind of assay: Inhibition of human chymotrypsin. Format: protein assay.

Coagulation factor XI, sequence (P03951 19-387 limits assumed): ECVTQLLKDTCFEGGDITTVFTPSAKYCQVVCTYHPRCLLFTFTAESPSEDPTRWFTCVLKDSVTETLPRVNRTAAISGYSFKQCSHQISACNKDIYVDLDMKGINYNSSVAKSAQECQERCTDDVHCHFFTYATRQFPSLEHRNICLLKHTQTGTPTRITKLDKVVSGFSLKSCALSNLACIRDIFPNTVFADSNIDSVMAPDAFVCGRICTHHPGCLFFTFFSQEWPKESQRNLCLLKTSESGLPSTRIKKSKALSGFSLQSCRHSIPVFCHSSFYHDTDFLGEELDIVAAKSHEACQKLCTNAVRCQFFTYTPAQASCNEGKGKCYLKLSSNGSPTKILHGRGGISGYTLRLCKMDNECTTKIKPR
Coagulation factor XI, sequence (P03951 388-625 limits assumed): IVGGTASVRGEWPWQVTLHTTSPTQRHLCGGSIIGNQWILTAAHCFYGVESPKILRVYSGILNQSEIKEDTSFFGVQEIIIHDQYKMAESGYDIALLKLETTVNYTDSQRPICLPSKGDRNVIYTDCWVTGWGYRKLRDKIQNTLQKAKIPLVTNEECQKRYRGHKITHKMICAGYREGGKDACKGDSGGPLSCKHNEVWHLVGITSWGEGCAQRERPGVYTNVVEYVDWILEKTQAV
Plasminogen, sequence (P00747 97-580 limits assumed): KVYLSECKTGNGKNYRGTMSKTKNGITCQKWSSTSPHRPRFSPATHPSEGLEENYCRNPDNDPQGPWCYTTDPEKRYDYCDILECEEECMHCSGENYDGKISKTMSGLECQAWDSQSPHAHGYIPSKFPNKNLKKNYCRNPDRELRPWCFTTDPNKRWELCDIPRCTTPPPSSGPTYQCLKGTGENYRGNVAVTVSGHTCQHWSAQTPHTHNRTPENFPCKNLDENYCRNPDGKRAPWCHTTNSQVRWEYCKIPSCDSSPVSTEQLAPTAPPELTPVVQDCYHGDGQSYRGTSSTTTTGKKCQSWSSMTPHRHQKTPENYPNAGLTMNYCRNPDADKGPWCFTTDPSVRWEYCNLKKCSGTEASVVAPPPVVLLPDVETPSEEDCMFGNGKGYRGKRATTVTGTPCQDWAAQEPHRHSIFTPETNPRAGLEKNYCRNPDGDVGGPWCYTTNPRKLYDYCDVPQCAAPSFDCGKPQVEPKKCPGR
Plasminogen, sequence (P00747 581-810 limits assumed): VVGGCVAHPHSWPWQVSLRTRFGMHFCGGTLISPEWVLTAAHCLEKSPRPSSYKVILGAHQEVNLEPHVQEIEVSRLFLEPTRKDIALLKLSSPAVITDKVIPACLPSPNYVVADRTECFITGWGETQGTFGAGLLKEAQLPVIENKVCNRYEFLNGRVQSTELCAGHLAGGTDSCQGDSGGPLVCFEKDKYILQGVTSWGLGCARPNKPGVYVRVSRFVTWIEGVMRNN
Coagulation factor X, sequence (P00742 41-179 limits assumed): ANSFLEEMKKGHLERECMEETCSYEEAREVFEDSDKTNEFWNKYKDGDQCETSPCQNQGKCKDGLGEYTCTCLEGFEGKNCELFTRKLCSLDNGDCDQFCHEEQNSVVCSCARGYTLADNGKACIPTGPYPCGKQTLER
Coagulation factor X, sequence (P00742 235-488 limits assumed): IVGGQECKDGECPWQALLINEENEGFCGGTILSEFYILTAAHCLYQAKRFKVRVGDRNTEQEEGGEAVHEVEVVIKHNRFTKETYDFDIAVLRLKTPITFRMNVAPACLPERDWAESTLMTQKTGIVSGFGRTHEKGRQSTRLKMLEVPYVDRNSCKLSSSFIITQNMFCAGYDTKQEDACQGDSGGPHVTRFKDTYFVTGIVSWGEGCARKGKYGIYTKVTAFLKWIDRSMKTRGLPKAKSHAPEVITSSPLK

On to `O=C(Nc1ccc(C(=O)Nc2ccc(C(=O)Nc3ccc(OS(=O)(=O)O)c4cc(OS(=O)(=O)O)cc(OS(=O)(=O)O)c34)cc2)cc1)Nc1ccc(C(=O)Nc2ccc(C(=O)Nc3ccc(OS(=O)(=O)O)c4cc(OS(=O)(=O)O)cc(OS(=O)(=O)O)c34)cc2)cc1`, for which the IC50 (as a rule, the point on the concentration scale where inhibition reaches its midpoint) is 4.6 µM on Coagulation factor XI, 0.22 µM against Neutrophil elastase and 0.57 µM on Cathepsin G.
For `O=C(O[C@H]1[C@H](OC(=O)c2cc(OS(=O)(=O)[O-])cc(OS(=O)(=O)[O-])c2)[C@H](OC(=O)c2cc(OS(=O)(=O)[O-])cc(OS(=O)(=O)[O-])c2)[C@@H](OC(=O)c2cc(OS(=O)(=O)[O-])cc(OS(=O)(=O)[O-])c2)[C@H](OC(=O)c2cc(OS(=O)(=O)[O-])cc(OS(=O)(=O)[O-])c2)[C@H]1OC(=O)c1cc(OS(=O)(=O)[O-])cc(OS(=O)(=O)[O-])c1)c1cc(OS(=O)(=O)[O-])cc(OS(=O)(=O)[O-])c1.[Na+].[Na+].[Na+].[Na+].[Na+].[Na+].[Na+].[Na+].[Na+].[Na+].[Na+].[Na+]`, the IC50 is 0.28 µM against Coagulation factor XI; greater than 40 µM against Prothrombin; greater than 40 µM against Trypsin; greater than 40 µM against Plasminogen; greater than 40 µM against Coagulation factor X; greater than 40 µM on Coagulation factor VII. Further, the IC50 on Coagulation factor XII and at Chymotrypsin was greater than 40 µM throughout.
